The values below come from patent publication US9980928B2, “Hydroxy aliphatic substituted phenyl aminoalkyl ether derivatives” (PROUS INSTITUTE FOR BIOMEDICAL RESEARCH, S.A., priority 2012, dated 2018).

For series [1], the target named is T1, Human dopamine transporters (Homo sapiens, UniProt Q01959).
T1 construct: expressed in transfected cells; host or cells: CHO-K1 cells (membranes)
The series is described as follows: Binding to the dopamine transporter ([125I]-RTI-55). As to conditions: reference compound; read-out: IC50, [125I]-RTI-55 binding to DAT. The procedure:
Human dopamine transporters expressed in CHO—K1 cells are used in modified Tris-HCl buffer at pH 7.4. […] Non-specific binding is estimated in the presence of […] nomifensine.

Series [2] deals with mice. In words: Novel object recognition test (acute). The format is in vivo. As to conditions: same experimental conditions. An excerpt:
The novel object recognition task is used to evaluate cognition, particularly memory recognition, in rodent models of CNS disorders. This test is based on the spontaneous tendency of rodents to spend more time exploring a novel object than a familiar one. The choice to explore the novel object reflects the use of learning and memory recognition. The novel object recognition test provides a measure of activity in a novel environment allowing tests for emotional reactivity and also for novel object recognition, a cognitive domain that depends on hippocampal functional integrity. Animals were habituated to the presence of two identical objects (LEGO® pieces) during a single session of 5 minutes (training) and sniffing (exploration of an object was defined as pointing the nose to the object at a distance of <1 cm and/or touching it with the nose). Mice were injected with saline or with the compound to be tested and returned to their home cages. At 24 hours the animals were introduced in the same open field again with the same two items (familiarization), and again exploration in each of them for 5 minutes was registered. One hour later, the mice were retested in the open field for 3 minutes, but this time with one of the “familiar” objects replaced by a new one (test). To analyze cognitive performance, a discrimination index was calculated as the difference in time exploring the novel and familiar object, expressed as the ratio of the total time spent exploring both objects, which made it possible to adjust for any differences in total exploration time. This test is useful for assessing impaired cognitive ability in transgenic strains of mice and evaluating novel chemical entities for their effect on cognition (Zhang, R. J Alzheimers Dis 2012, 31(4): 801-12). […] Neuroplasticity 2007, 26496).

In series [3] the test system is mice. The series is described as follows: Tail suspension assay in mice. The series is classed as in vivo. The procedure: Another method of measuring antidepressant activity that may be used to evaluate the compounds of the present invention is the tail suspension test in mice described in Vogel, H. G. and Vogel, W. H. (Eds.) Drug Discovery and Evaluation, Springer-Verlag Berlin Heidelberg, 1997) pp. 304-3059). The mouse tail suspension assay was conducted 60 minutes after dosing. The duration of immobility was recorded for a period of 5 minutes after tail suspension was initiated, and reduction in the duration of immobility by ≥50% relative to the control group indicated antidepressant activity. Statistical analysis was also performed by using one-way ANOVA followed by Dunnett's test to compare the data of test compound-treated and vehicle control groups. Significance was considered to be P<0.05.

Series [4] concerns the target T2, norepinephrine (NE) transporter (Homo sapiens, UniProt P23975).
T2 construct: expressed in transfected cells; host or cells: CHO cells
In words: Norepinephrine transporter binding radioligand inhibition ([3H]-nisoxetine). The settings on record: concentration 10 μM. The procedure: The norepinephrine (NE) transporter removes NE from the synaptic cleft. The NE transporter terminates the effects of […], enabling its reuse by the presynaptic neuron. The in vitro binding of the compounds of the invention to the NE transporter and the percent inhibition of control-specific binding ([^3H]-nisoxetine in human recombinant CHO cells) is determined following the method described in Pacholczyk et al., (Nature 1991, 350(6316): 350-4.

Another series deals with T3, serotonin transporter (Homo sapiens, UniProt P31645).
T3 construct: expressed in transfected cells; host or cells: CHO cells
In words: Serotonin transporter binding radioligand inhibition ([3H]-imipramine). As to conditions: concentration 10 μM; read-out: serotonin binding inhibition. An excerpt:
The serotonin transporter removes serotonin from the synaptic deft. The serotonin transporter terminates the effects of […], enabling its reuse by the presynaptic neuron.

A further series has as its target uptake of norepinephrine (Homo sapiens, UniProt P23975). The series is described as follows: Uptake inhibition of norepinephrine, cellular assay. The format is cell-based. The settings on record: read-out: Norepinephrine reuptake inhibition (IC50 μM). Here is the method: (§1) The effect of the compounds of the present invention as inhibitors of the uptake of norepinephrine and serotonin in cellular assays at concentrations that range from […] to 1 nM is determined following the methods described in Galli, A. et al. J Exp Biol 1995, 198(Pt. 10): 2197-212 and Gu, H. et al. J Biol Chem. 1994, 269(10):7124-30.

In a further series the target is uptake of serotonin (Homo sapiens, UniProt P31645). In words: Uptake inhibition of serotonin, cellular assay. The series is classed as cell-based. As to conditions: read-out: Serotonin reuptake inhibition (IC50 μM). The procedure:
as §1

For series [5], the system named is mice. In words: Mouse formalin assay (analgesic activity). The series is classed as in vivo. Here is the method: The analgesic activity of the compounds of the present invention is determined making use of the mouse formalin test described in Hunskaar, S. J Neurosci Methods 1985, 14(1): 69-76. The hind paw licking time was measured at 5-minute intervals for 30 minutes following subplantar injection of formalin (0.02 mL, 2%). Statistical analysis using one-way ANOVA followed by Dunnett's test was applied for comparison between the test substance-treated and vehicle control groups. P<0.05 was considered significant.

The next series has as its system CHO cells. The series is described as follows: In vitro MTT toxicity screen. The format is cell-based, Chinese hamster. As to conditions: 10 μM, compared to positive control group (10% DMSO). Here is the method:
The toxicity of the compounds of the present invention at a concentration of 10 μM has been explored using the tetrazolium salt (MTT) method in CHO cells. The MTT method involving conversion of MTT to colored formazan by cells serves as an indirect measurement of cell growth/cell kill, as reported by several groups (Paimela, T. et al. Mol Vis 2012; 18: 1189-96; Hansen, M. B. et al. J Immunol Methods 1989, 119(2): 203-10).
In the MTT assay, cytotoxicity is correlated with the color of MTT and is measured with a spectrophotometer at the wavelength of 570 nm. Briefly, fresh MTT solution (10 mg/mL in 1×PBS) was added (1:20 volume of medium) and the cells were incubated for 1.5 hours. The cells were lysed and purple formazan was dissolved into the solution by overnight incubation with MTT lysis buffer (20% SDS, 50% N,N-dimethylformamide, 2% acetic acid, 25 mM HCl; the volume of medium+volume of MTT salt solution).

Series [6] relates to phosphorylation of CREB in SN56 and T48 cell lines. In words: CREB phosphorylation in SN56 and T48 cell lines (western blot). The series is classed as cell-based, mouse. The settings on record: both cell lines (SN56 and T48). Here is the method:
The purpose of the study was to assess the acute biochemical neuronal changes in neurotrophin and synaptic plasticity signaling in vitro after the incubation in SN56 (fusion of mouse septal area cells and neuroblastoma cells with no TRKB expression) and T48 (SN56 stable transfected to express TrkB) cell lines the Examples 3 and 4. These changes were studied with a western blot assessment of Erk, Akt, PLC, Trkb, BDNF and CREB (cAMP response element-binding protein) phosphorilation assays.
Proteins were denatured in 62.5 mM Tris-HCl (pH 6.8), 2% (w/v) SDS, 10% glycerol, 140 mM β-mercaptoethanol and 0.1% (w/v) bromophenol blue, heated at 100° C. for 5 min (except for VGLUT1 blotting: 10 minutes 60° C.) and resolved in denaturing polyacrylamide gels (8% acrylamide); proteins were transferred to a nitrocellulose membrane), and washed twice in Tris-buffered saline containing 0.1% Tween-20 (TBS-T). […]
After primary antibody incubation, membranes were washed with TBS-T and incubated for 1 h at room temperature with the appropriated horseradish peroxidase-conjugated secondary antibody (Promega, Madison, Wis., USA), and the reaction was finally visualized with the Western Blotting Luminol Reagent (Santa Cruz Biotechnology, Santa Cruz, Calif., USA). Western blot replicates were scanned and quantified using a computer-assisted densitometric analysis. […]

The mark [7] stands for this setting: 30 mg/kg oral, 60 minutes after dosing.

T3 sequence (P31645 whole entry): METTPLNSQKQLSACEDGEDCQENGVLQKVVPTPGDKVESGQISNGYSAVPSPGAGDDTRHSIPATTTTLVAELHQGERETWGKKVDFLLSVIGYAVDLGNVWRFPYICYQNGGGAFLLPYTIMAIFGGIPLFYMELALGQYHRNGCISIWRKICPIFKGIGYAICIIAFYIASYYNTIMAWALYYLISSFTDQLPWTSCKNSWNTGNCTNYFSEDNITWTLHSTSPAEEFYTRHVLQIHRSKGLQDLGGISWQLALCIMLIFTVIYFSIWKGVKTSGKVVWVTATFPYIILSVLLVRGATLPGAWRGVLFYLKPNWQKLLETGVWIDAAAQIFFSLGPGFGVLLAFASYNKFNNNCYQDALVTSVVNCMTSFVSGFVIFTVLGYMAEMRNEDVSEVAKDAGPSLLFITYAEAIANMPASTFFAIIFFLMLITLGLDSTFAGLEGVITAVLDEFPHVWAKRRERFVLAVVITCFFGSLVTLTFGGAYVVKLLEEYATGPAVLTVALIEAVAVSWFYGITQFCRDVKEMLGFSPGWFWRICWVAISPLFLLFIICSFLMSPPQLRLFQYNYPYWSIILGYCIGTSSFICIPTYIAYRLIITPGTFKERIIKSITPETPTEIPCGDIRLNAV
uptake of serotonin, sequence (P31645 whole entry): as above
uptake of norepinephrine, sequence (P23975 whole entry): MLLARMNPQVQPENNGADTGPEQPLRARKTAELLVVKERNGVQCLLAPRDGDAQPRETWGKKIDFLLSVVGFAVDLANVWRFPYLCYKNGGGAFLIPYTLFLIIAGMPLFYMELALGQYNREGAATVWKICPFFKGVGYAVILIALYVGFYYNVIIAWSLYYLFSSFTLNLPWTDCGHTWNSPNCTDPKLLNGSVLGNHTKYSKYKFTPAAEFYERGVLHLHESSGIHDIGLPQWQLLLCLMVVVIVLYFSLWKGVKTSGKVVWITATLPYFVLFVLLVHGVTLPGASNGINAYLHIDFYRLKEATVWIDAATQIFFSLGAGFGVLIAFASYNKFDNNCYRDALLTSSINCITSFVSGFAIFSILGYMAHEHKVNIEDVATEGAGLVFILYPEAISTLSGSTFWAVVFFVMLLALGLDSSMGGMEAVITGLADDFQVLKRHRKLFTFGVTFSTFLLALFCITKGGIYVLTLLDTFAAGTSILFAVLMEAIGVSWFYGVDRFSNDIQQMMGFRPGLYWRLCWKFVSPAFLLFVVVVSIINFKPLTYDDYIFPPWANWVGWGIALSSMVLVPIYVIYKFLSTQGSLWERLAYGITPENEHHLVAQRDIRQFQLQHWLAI
T2 sequence (P23975 whole entry): as above
T1 sequence (Q01959 whole entry): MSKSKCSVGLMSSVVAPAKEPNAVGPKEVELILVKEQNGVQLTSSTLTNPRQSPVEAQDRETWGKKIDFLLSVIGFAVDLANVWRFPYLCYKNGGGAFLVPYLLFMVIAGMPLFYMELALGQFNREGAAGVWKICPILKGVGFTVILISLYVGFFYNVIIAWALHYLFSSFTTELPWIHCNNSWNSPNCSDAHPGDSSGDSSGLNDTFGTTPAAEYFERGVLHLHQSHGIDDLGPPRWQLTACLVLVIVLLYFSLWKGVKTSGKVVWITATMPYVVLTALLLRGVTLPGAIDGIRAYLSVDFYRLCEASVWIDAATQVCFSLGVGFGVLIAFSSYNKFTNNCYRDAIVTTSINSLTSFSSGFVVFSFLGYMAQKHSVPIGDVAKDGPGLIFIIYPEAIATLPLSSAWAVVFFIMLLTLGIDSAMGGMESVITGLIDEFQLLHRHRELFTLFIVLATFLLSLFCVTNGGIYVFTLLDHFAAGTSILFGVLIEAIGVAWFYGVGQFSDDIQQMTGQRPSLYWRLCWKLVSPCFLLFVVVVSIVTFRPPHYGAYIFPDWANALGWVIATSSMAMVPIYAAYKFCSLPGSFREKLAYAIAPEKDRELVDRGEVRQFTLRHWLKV

As a reminder, the IC50 is the concentration that gives 50% inhibition. Regarding `COC(=O)[C@H]1[C@H]2C[C@@H]3c4[nH]c5cc(OC)ccc5c4CCN3C[C@H]2C[C@@H](OC(=O)c2cc(OC)c(OC)c(OC)c2)[C@@H]1OC` [reserpine, reference compound], the IC50 in [1] was found to be 1.3 µM.
With `CCN(CC)C(=O)C1(c2ccccc2)CC1CN` (centres unmarked) [milnacipran, reference compound], the cognitive improvement result in the series on mice [2] (30 mg/kg i.p.) is “absence of cognitive improvement”.
For the compound `CNCCCN1c2ccccc2CCc2ccccc21` [Desipramine, reference compound], the “antidepressant effect (duration of immobility)” value (from here on “antidepressant effect”) in the series on mice [3] (setting [7]) was “significant effect”.
The term inhibition denotes the change of the read-out against control, counted positive when it falls. Regarding `CNCC[C@H](Oc1ccc(CCO)cc1)c1ccccc1.Cl` [Example 4, (S)-2-[4-[3-(Methylamino)-1-phenylpropoxy]phenyl]ethanol hydrochloride], the figures for the inhibition at 10 µM (in series [4]; on serotonin transporter) were 65 to 90% and 68 to 82%, respectively. Further, the IC50 lay within 1.6 to 2.9 µM at uptake of norepinephrine and 2.5 to 4.8 µM on uptake of serotonin. The entries for the “antidepressant effect” value with mice [3] (setting [7]) and with mice [3] (90 mg/kg p.o.) were “significant activity” and “active”, respectively. Further, the “analgesic activity following formalin challenge (hind paw licking time)” value in the series with mice [5] (30 mg/kg oral) and in the series with mice [5] (90 mg/kg oral) was “active” in each case. Also, in the series on CHO cells, the “cell viability (MTT)” value is reported as 100%. In addition, the “phosphorylation of CREB” value in series [6] is given as “increase significantly”.
By melting point is commonly meant the temperature, or range, at which the solid turns liquid. In turn, `Cl.OCCc1ccc(OCC2CNCCO2)cc1` (centres unmarked) [Example 18, 2-[4-(Morpholin-2-ylmethoxy)phenyl]ethanol hydrochloride] had a melting point of 163 to 169 °C. This compound also had an inhibition at 10 µM in series [4] of 65 to 90%. In addition, the inhibition at 10 µM at serotonin transporter was 68 to 82%. At uptake of norepinephrine, the IC50 fell in the range of 1.6 to 2.9 µM. Moreover, the IC50 at uptake of serotonin fell in the range of 2.5 to 4.8 µM. Besides, the “analgesic activity following formalin challenge (hind paw licking time)” value in the series with mice [5] (90 mg/kg oral) was “demonstrated analgesic activity”. In the series on CHO cells, the “cell viability (MTT)” value is 100%.
In the case of `C#CCN[C@@H]1CCc2ccccc21` [rasagiline, reference compound], in the series with mice [2] (3 mg/kg i.p.), the cognitive improvement entry is reported as “absence of cognitive improvement”.
With `CNCC[C@@H](Oc1ccc(CCO)cc1)c1ccccc1.Cl` [Example 3, (R)-2-[4-[3-(Methylamino)-1-phenylpropoxy]phenyl]ethanol hydrochloride], the inhibition at 10 µM in series [4] lay in the range of 65 to 90%; on serotonin transporter, 68 to 82%. For the same compound, the values for the IC50 on uptake of norepinephrine and on uptake of serotonin were 1.6 to 2.9 µM and 2.5 to 4.8 µM, respectively. Also, the “antidepressant effect” value with mice [3] (90 mg/kg p.o.) was “active”. For the same compound, in the series with mice [5] (90 mg/kg oral), the “analgesic activity following formalin challenge (hind paw licking time)” value is recorded as “active”. Further, in the series on CHO cells, the “cell viability (MTT)” value is listed as 100%. For the same compound, in series [6], the “phosphorylation of CREB” value is “increase significantly”.
For the compound `CNCCC(Oc1ccc(C(F)(F)F)cc1)c1ccccc1` (centres unmarked) [Fluoxetine, reference compound], the cognitive improvement result with mice [2] (30 mg/kg i.p.) was “absence of cognitive improvement”.
Compound `Cl.NCCC(Oc1ccc(CCO)cc1)c1ccccc1` (centres unmarked) [Example 12, 2-[4-(3-Amino-1-phenylpropoxy)phenyl]ethanol hydrochloride] yielded a melting point of 68 to 70 °C. In series [4], the inhibition at 10 µM was determined as 79%. Besides, the inhibition at 10 µM on serotonin transporter was 78%. Moreover, the IC50 at uptake of norepinephrine was determined as 2.7 µM. Also, at uptake of serotonin, the IC50 stood at 1 µM.
